Measurements as given in ChEMBL document CHEMBL2321679, “Immunomodulatory activity of an anti-HSV-1 synthetic stigmastane analog” (Bioorg Med Chem, 2013).
pIC50: −log10 of the molar value. Active and inactive are the calls of the source. No cut-off for these calls is given here.

Assays:
[1] = biological target: Transcription factor p65 (Homo sapiens) (UniProt Q04206); test: Inhibition of NF-kappaB p65 activation in HSV1 KOS infected human IOBA-NHC cells assessed as reduction of NF-kappaB p65 translocation at 40 uM after 24 hrs by indirect immunofluorescence assay; assay type: cell-based
Sequence of Transcription factor p65 (Homo sapiens) (Q04206 whole entry): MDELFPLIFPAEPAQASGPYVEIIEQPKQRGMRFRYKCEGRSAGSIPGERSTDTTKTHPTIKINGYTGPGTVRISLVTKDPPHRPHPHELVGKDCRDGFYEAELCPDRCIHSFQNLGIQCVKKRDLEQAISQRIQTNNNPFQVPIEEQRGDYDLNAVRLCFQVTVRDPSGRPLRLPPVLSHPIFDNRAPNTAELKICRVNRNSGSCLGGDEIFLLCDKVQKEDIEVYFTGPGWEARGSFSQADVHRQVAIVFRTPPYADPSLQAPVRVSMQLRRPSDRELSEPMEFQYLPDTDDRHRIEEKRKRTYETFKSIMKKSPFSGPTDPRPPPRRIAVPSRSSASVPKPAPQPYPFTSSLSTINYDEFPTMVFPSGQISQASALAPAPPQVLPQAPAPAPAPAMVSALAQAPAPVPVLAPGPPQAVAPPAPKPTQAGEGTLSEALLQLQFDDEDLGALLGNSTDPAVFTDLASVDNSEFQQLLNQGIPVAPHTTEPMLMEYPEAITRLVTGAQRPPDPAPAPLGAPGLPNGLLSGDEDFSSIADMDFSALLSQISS

[2] = biological target: Transcription factor p65 (Homo sapiens) (UniProt Q04206); test: Inhibition of NF-kappaB p65 activation in HSV1 KOS infected human HCLE cells assessed as reduction of NF-kappaB p65 translocation at 40 uM after 24 hrs by indirect immunofluorescence assay; assay type: cell-based
[3] = biological target: Transcription factor p65 (Mus musculus) (UniProt Q04207); test: Effect on NF-kappaB p65 activation in LPS-stimulated mouse J774A.1 cells assessed as NF-kappaB p65 translocation at 40 uM after 24 hrs by indirect immunofluorescence assay
Sequence of Transcription factor p65 (Mus musculus) (Q04207 whole entry): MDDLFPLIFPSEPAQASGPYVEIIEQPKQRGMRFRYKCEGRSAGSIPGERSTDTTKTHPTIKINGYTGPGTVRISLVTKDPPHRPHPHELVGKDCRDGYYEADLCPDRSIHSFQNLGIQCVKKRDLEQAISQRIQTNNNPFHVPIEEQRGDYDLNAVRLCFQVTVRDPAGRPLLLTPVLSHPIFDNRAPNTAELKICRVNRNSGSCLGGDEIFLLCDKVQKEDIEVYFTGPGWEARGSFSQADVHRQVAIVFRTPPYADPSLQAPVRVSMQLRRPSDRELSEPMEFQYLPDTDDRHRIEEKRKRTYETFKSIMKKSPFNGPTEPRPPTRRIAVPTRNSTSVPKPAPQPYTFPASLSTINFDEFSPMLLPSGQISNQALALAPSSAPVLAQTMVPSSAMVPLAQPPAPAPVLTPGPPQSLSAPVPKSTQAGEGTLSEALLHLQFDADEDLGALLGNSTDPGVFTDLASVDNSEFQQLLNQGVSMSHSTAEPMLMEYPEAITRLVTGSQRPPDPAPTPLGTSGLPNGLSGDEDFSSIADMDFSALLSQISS

[4] = biological target: Transcription factor p65 (Homo sapiens) (UniProt Q04206); test: Effect on NF-kappaB p65-mediated TNFalpha release in human IOBA-NHC cells at 40 uM after 24 hrs by ELISA; assay type: cell-based
[5] = biological target: Transcription factor p65 (Homo sapiens) (UniProt Q04206); test: Effect on NF-kappaB p65-mediated TNFalpha release in human HCLE cells at 40 uM after 24 hrs by ELISA; assay type: cell-based
[6] = biological target: Transcription factor p65 (Homo sapiens) (UniProt Q04206); test: Effect on NF-kappaB p65-mediated IL-6 release in human IOBA-NHC cells at 40 uM after 24 hrs by ELISA; assay type: cell-based
[7] = biological target: Transcription factor p65 (Homo sapiens) (UniProt Q04206); test: Effect on NF-kappaB p65-mediated IL-6 release in human HCLE cells at 40 uM after 24 hrs by ELISA; assay type: cell-based
[8] = biological target: Transcription factor p65 (Homo sapiens) (UniProt Q04206); test: Increase of NF-kappaB p65-mediated IL-8 release in human IOBA-NHC cells at 40 uM after 24 hrs by ELISA; assay type: cell-based
[9] = biological target: Transcription factor p65 (Homo sapiens) (UniProt Q04206); test: Increase of NF-kappaB p65-mediated IL-8 release in human HCLE cells at 40 uM after 24 hrs by ELISA; assay type: cell-based
[10] = biological target: Transcription factor p65 (Homo sapiens) (UniProt Q04206); test: Inhibition of NF-kappaB p65-mediated TNFalpha release in HSV1 KOS infected human IOBA-NHC cells at 40 uM after 24 hrs by ELISA; assay type: cell-based
[11] = biological target: Transcription factor p65 (Homo sapiens) (UniProt Q04206); test: Inhibition of NF-kappaB p65-mediated IL-6 release in HSV1 KOS infected human IOBA-NHC cells at 40 uM after 24 hrs by ELISA; assay type: cell-based
[12] = biological target: Transcription factor p65 (Homo sapiens) (UniProt Q04206); test: Inhibition of NF-kappaB p65-mediated IL-8 release in HSV1 KOS infected human IOBA-NHC cells at 40 uM after 24 hrs by ELISA; assay type: cell-based
[13] = biological target: Transcription factor p65 (Homo sapiens) (UniProt Q04206); test: Inhibition of NF-kappaB p65-mediated IL-8 release in HSV1 KOS infected human HCLE cells at 40 uM after 24 hrs by ELISA; assay type: cell-based
J774.A1 [14] = test: Inhibition of LPS-induced TNFalpha production in mouse J744A.1 cells after 24 hrs by ELISA; assay type: functional, cell-based
J774.A1 [15] = test: Inhibition of LPS-induced IL-6 production in mouse J744A.1 cells after 24 hrs by ELISA; assay type: functional, cell-based
J774.A1 [16] = test: Inhibition of LPS-induced […] production in mouse J744A.1 cells at 40 uM after 24 hrs by ELISA; assay type: functional; settings: J774.A1, 24 h
[17] = Immunomodulatory activity in HSV1 KOS infected human HCLE cells assessed as increase of IL-8 gene expression at 40 uM after 6 hrs by RT-PCR analysis relative to control; assay type: functional
[18] = Immunomodulatory activity in HSV1 KOS infected human HCLE cells assessed as increase of IL-1alpha gene expression at 40 uM after 6 hrs by RT-PCR analysis relative to control; assay type: functional
[19] = Immunomodulatory activity in HSV1 KOS infected human HCLE cells assessed as increase of CXCL2 gene expression at 40 uM after 6 hrs by RT-PCR analysis relative to control; assay type: functional
[20] = Immunomodulatory activity in HSV1 KOS infected human HCLE cells assessed as increase of IL-1RL1 gene expression at 40 uM after 6 hrs by RT-PCR analysis relative to control; assay type: functional
[21] = Immunomodulatory activity in HSV1 KOS infected human HCLE cells assessed as increase of CSF2 (GM-CSF) gene expression at 40 uM after 6 hrs by RT-PCR analysis relative to control; assay type: functional
J774.A1 [22] = test: Immunomodulatory activity in LPS-stimulated mouse J744A.1 cells assessed as decrease of Il1b gene expression at 40 uM after 6 hrs by RT-PCR analysis relative to control; assay type: functional
J774.A1 [23] = test: Immunomodulatory activity in LPS-stimulated mouse J744A.1 cells assessed as decrease of Dusp2 gene expression at 40 uM after 6 hrs by RT-PCR analysis relative to control; assay type: functional
J774.A1 [24] = test: Immunomodulatory activity in LPS-stimulated mouse J744A.1 cells assessed as increase of Csf1 gene expression at 40 uM after 6 hrs by RT-PCR analysis relative to control; assay type: functional
J774.A1 [25] = test: Immunomodulatory activity in LPS-stimulated mouse J744A.1 cells assessed as increase of Atf3 gene expression at 40 uM after 6 hrs by RT-PCR analysis relative to control; assay type: functional
J774.A1 [26] = test: Immunomodulatory activity in LPS-stimulated mouse J744A.1 cells assessed as increase of CXCL10 gene expression at 40 uM after 6 hrs by RT-PCR analysis relative to control; assay type: functional
J774.A1 [27] = test: Immunomodulatory activity in LPS-stimulated mouse J744A.1 cells assessed as increase of Il12b gene expression at 40 uM after 6 hrs by RT-PCR analysis relative to control; assay type: functional
J774.A1 [28] = test: Immunomodulatory activity in LPS-stimulated mouse J744A.1 cells assessed as increase of Socs2 gene expression at 40 uM after 6 hrs by RT-PCR analysis relative to control; assay type: functional
J774.A1 [29] = test: Immunomodulatory activity in LPS-stimulated mouse J744A.1 cells assessed as increase of Slpi gene expression at 40 uM after 6 hrs by RT-PCR analysis relative to control; assay type: functional
J774.A1 [30] = test: Immunomodulatory activity in LPS-stimulated mouse J744A.1 cells assessed as increase of TLR4 gene expression at 40 uM after 6 hrs by RT-PCR analysis relative to control; assay type: functional
J774.A1 [31] = test: Immunomodulatory activity in LPS-stimulated mouse J744A.1 cells assessed as increase of IL-10 gene expression at 40 uM after 6 hrs by RT-PCR analysis relative to control; assay type: functional
J774.A1 [32] = test: Immunomodulatory activity in LPS-stimulated mouse J744A.1 cells assessed as increase of IL-6 gene expression at 40 uM after 6 hrs by RT-PCR analysis relative to control; assay type: functional
J774.A1 [33] = test: Immunomodulatory activity in LPS-stimulated mouse J744A.1 cells assessed as increase of Ifi47 gene expression at 40 uM after 6 hrs by RT-PCR analysis relative to control; assay type: functional
J774.A1 [34] = test: Immunomodulatory activity in LPS-stimulated mouse J744A.1 cells assessed as increase of Il23a gene expression at 40 uM after 6 hrs by RT-PCR analysis relative to control; assay type: functional
J774.A1 [35] = test: Immunomodulatory activity in LPS-stimulated mouse J744A.1 cells assessed as increase of CXCL11 gene expression at 40 uM after 6 hrs by RT-PCR analysis relative to control; assay type: functional

Compound `CC[C@@H](C(C)C)[C@H](O)[C@@H](O)[C@@H](C)[C@H]1CC[C@H]2[C@@H]3CCC4=CC(=O)CC[C@]4(C)[C@H]3CC[C@]12C` has an inhibition [1] of 22.2%, an inhibition [2] of 5.7% and an Activity [3] of 87.9%. For the same compound, the Activity [4] was “inactive”, the Activity [5] was “inactive” and the Activity [6] was “inactive”. The Activity [7] was “inactive”, the Activity [8] was “Active” and the Activity [9] was “Active”. The inhibition [10] was “inactive”, the inhibition [11] was “inactive” and the inhibition [12] was “Active”. For the same compound, the inhibition [13] was “Active”, the inhibition (J774.A1 [14]) was “Dose-dependent effect” and the pIC50 (J774.A1 [14]; J774.A1, 24 h) was 5.15. For the same compound, the inhibition (J774.A1 [15]) was “Dose-dependent effect”, the pIC50 (J774.A1 [15]; J774.A1, 24 h) was < 4.40 and the inhibition at 40 µM (J774.A1 [16]) was 77.5%. The “fold change (FC)” value [17] was 4.4, the “fold change (FC)” value [18] was 2.9 and the “fold change (FC)” value [19] was 2.9. For the same compound, the “fold change (FC)” value [20] was 5.2, the “fold change (FC)” value [21] was 2.2 and the “fold change (FC)” value (J774.A1 [22]) was 2.58. For the same compound, the “fold change (FC)” value (J774.A1 [23]) was 3.86, the “fold change (FC)” value (J774.A1 [24]) was 4.42 and the “fold change (FC)” value (J774.A1 [25]) was 4.41. The “fold change (FC)” value (J774.A1 [26]) was 11.41, the “fold change (FC)” value (J774.A1 [27]) was 4.19 and the “fold change (FC)” value (J774.A1 [28]) was 2.29. The “fold change (FC)” value (J774.A1 [29]) was 1.53, the “fold change (FC)” value (J774.A1 [30]) was 1.95 and the “fold change (FC)” value (J774.A1 [31]) was 1.27. For the same compound, the “fold change (FC)” value (J774.A1 [32]) was 1.97, the “fold change (FC)” value (J774.A1 [33]) was 2.49 and the “fold change (FC)” value (J774.A1 [34]) was 3.19. For the same compound, the “fold change (FC)” value (J774.A1 [35]) was 6.01.

In the case of `C[C@@H]1C[C@H]2[C@@H]3CCC4=CC(=O)C=C[C@]4(C)[C@@]3(F)[C@@H](O)C[C@]2(C)[C@@]1(O)C(=O)CO`, the inhibition [1] was “inactive”, the inhibition [2] was “inactive” and the Activity [3] was 100%. For the same compound, the inhibition [10] was “Active”, the inhibition [11] was “Active” and the inhibition [12] was “Active”. The inhibition [13] was “Active”.
